A short description of data set [1]: Potentiation of forskolin-induced CFTR deltaF508 mutant expressed in FRT cells co-expressing halide-sensitive YFP-H148Q/I152L by fluorescence quenching assay. The format is cell-based, Homo sapiens.
For data set [2], the target named is L-type voltage-dependent Ca2+ channel (Homo sapiens, UniProt O60840+Q01668+Q13698+Q13936). The experiment in a line: Inhibition of L-type voltage-dependent Ca2+ channel at 1 uM.

Broadly, the inhibition is the change of the read-out against control, counted positive when it falls. On to `CCOC(=O)C1=C(C)NC(C)=C(C(=O)OCC)C1c1cccc(Br)c1`, for which the “pEC50 for potentiation of CFTR deltaF508 (activation potency)” value (from here on “pEC50 for potentiation of CFTR deltaF508”) in data set [1] amounted to 6.54. Moreover, the inhibition at 1 µM in data set [2] is 100%.
In the same order, the values of `C=CCOC(=O)C1=C(C)NC(C)=C(C(=O)OCC=C)C1c1ccc(C(C)(C)C)cc1` are 6.96 and 5.9%.
As for `COC(=O)C1=C(C)N=C(C)/C(=C(/O)OC)C1/C=C/c1ccccc1` (stereo not given), the “pEC50 for potentiation of CFTR deltaF508” value in data set [1] is 5.48. Also, the inhibition at 1 µM in data set [2] worked out at 18.8%.
In the same order, the values of `CCOC(=O)C1=C(C)NC(C)=C(C(=O)OC)C1c1ccc(Cl)c(Cl)c1` (stereo not given) are 6.89 and 100%.
With `COC(=O)C1=C(C)NC(C)=C(C(=O)OC)C1c1ccc(OC)cc1`, the “pEC50 for potentiation of CFTR deltaF508” value in data set [1] came out at 6.29. In addition, in data set [2], the inhibition at 1 µM stood at 9.1%.
In the same order, the values of `COC(=O)C1=C(C)NC(C)=C(C(=O)OC)C1c1ccccc1F` are 6.26 and 95.9%.
`CCOc1ccc(C2C(C(=O)OC)=C(C)NC(C)=C2C(=O)OC)cc1`: in data set [1], the “pEC50 for potentiation of CFTR deltaF508” value was 5.27. The same compound gave an inhibition at 1 µM in data set [2] of 14.6%.
Consider `COC(=O)C1=C(C)NC(C)=C(C(=O)OC)C1c1ccc(C(C)C)cc1`, for which the “pEC50 for potentiation of CFTR deltaF508” value in data set [1] is listed as 6.18. The compound also yielded an inhibition at 1 µM in data set [2] of 54.9%.
For the compound `COC(=O)C1=C(C)NC(C)=C(C(=O)OC)C1c1ccc(OC)c(Br)c1`, the “pEC50 for potentiation of CFTR deltaF508” value in data set [1] turned out to be 5.48. This compound also showed an inhibition at 1 µM in data set [2] of 32.4%.
Regarding `COC(=O)C1=C(C)NC(C)=C(C(=O)OC)C1c1ccc(OC)c([N+](=O)[O-])c1`, the “pEC50 for potentiation of CFTR deltaF508” value in data set [1] was determined as 4.93. In addition, the inhibition at 1 µM in data set [2] was found to be 15.6%.
On to `COC(=O)C1=C(C)NC(C)=C(C(=O)OC)C1c1ccc2c(c1)OCO2`, for which the “pEC50 for potentiation of CFTR deltaF508” value in data set [1] is given as 5.71. In data set [2], this compound gave an inhibition at 1 µM of 37.2%.
In the same order, the values of `CCOC(=O)C1=C(C)NC(C)=C(C(=O)OCC)C1c1ccc(C(C)(C)C)cc1` are 5.89 and 32.1%.
In the same order, the values of `CC1=C(C(=O)OCc2ccccc2)C(c2ccc(O)cc2)C(C(=O)OCc2ccccc2)=C(C)N1` are 5.92 and 72.8%.
In the same order, the values of `CC1=C(C(=O)OCc2ccccc2)C(c2ccc(Cl)cc2)C(C(=O)OCc2ccccc2)=C(C)N1` are 5.23 and 92.9%.
`COCCOC(=O)C1=C(C)NC(C)=C(C(=O)OCCOC)C1c1cccc([N+](=O)[O-])c1`: the “pEC50 for potentiation of CFTR deltaF508” value in data set [1] amounted to 5.93. In data set [2], this compound yielded an inhibition at 1 µM of 100%.
In the same order, the values of `COC(=O)C1=C(C)N(C)C(C)=C(C(=O)OC)C1c1ccc(Cl)c([N+](=O)[O-])c1` are 5.47 and 35.1%.
In the same order, the values of `COC(=O)C1=C(C)N(C)C(C)=C(C(=O)OC)C1c1cccc(Cl)c1Cl` are 5.23 and 42.2%.
In the same order, the values of `COC(=O)C1=C(C)N(C)C(C)=C(C(=O)OC)C1c1ccc(-c2ccccc2)cc1` are 5.63 and 23.5%.
On to `CCOC(=O)C1=C(C)NC(C)=C(C(=O)OCC)C1c1c(Cl)cccc1Cl`, for which, in data set [1], the “pEC50 for potentiation of CFTR deltaF508” value turned out to be 6.52. The compound further had an inhibition at 1 µM in data set [2] of 100%.
With `COC(=O)C1=C(C)N(C)C(C)=C(C(=O)OC)C1c1cccc(Cl)c1`, in data set [1], the “pEC50 for potentiation of CFTR deltaF508” value is 4.89. Moreover, in data set [2], the inhibition at 1 µM turned out to be 40.2%.
For the compound `CCOC(=O)C1=C(C)NC(C)=C(C(=O)OCC)C1c1ccc(N(CC)CC)cc1`, the “pEC50 for potentiation of CFTR deltaF508” value in data set [1] is listed as 5.59. This compound had an inhibition at 1 µM in data set [2] of 34.7%.
In the same order, the values of `CC1=C(C(=O)OC(C)C)C(c2ccc(Cl)cc2)C(C(=O)OC(C)C)=C(C)N1` are 6.14 and 50.5%.
In the same order, the values of `COc1ccc(C(=O)OC2C(C(=O)OCc3ccccc3)=C(C)NC(C)=C2C(=O)OCc2ccccc2)cc1OC` are 5.41 and 23.3%.
In the same order, the values of `COc1ccc(C2C(C(=O)OC(C)C)=C(C)NC(C)=C2C(=O)OC(C)C)cc1OC` are 5.76 and 22.1%.
On to `C=CCOC(=O)C1=C(C)NC(C)=C(C(=O)OCC=C)C1c1cccc(Oc2ccccc2)c1`, for which the “pEC50 for potentiation of CFTR deltaF508” value in data set [1] is 6.52. Testing at 1 µM in data set [2] gave an inhibition of 48.2%.
With `C=CCOC(=O)C1=C(C)NC(C)=C(C(=O)OCC=C)C1c1ccc(Cl)c(Cl)c1`, the “pEC50 for potentiation of CFTR deltaF508” value in data set [1] stood at 6.21. Further, the inhibition at 1 µM in data set [2] came to 87.2%.
In the same order, the values of `CCOC(=O)C1=C(C)NC(C)=C(C(=O)OCC)C1c1ccc(N(C)C)cc1` are 6.1 and 30.4%.
In the same order, the values of `CCOC(=O)C1=C(C)NC(C)=C(C(=O)OCC)C1c1ccc(OC)c(OC)c1` are 6.21 and 100%.
In the case of `CCOC(=O)C1=C(C)NC(C)=C(C(=O)OC)C1c1cc(Cl)cc(Cl)c1OC` (stereo not given), the “pEC50 for potentiation of CFTR deltaF508” value in data set [1] is on record as 6.62. Further, the inhibition at 1 µM in data set [2] came to 100%.
Turning to `CCOC(=O)C1=C(C)NC(C)=C(C(=O)OCC)C1c1ccc(OCC)cc1`, in data set [1], the “pEC50 for potentiation of CFTR deltaF508” value was determined as 6.29. The inhibition at 1 µM in data set [2] was 58.7%.
In the same order, the values of `COC(=O)C1=C(C)NC(C)=C(C(=O)OC)C1c1cccc(Br)c1` are 6.46 and 100%.
In the same order, the values of `COC(=O)C1=C(C)NC(C)=C(C(=O)OC)C1c1ccc(Cl)c(Cl)c1` are 5.77 and 100%.
As to `CCOC(=O)C1=C(C)NC(C)=C(C(=O)OCC)C1c1ccccc1Cl`, in data set [1], the “pEC50 for potentiation of CFTR deltaF508” value was 6.59. The inhibition at 1 µM in data set [2] turned out to be 100%.
Take `CCc1ccc(C2C(C(=O)OC)=C(C)NC(C)=C2C(=O)OC)cc1`: in data set [1], the “pEC50 for potentiation of CFTR deltaF508” value is reported as 6.14. The compound further showed an inhibition at 1 µM in data set [2] of 37.4%.
In the same order, the values of `CCOc1ccc(C2C(C(=O)OC)=C(C)NC(C)=C2C(=O)OC)cc1OC` are 5.62 and 22.6%.
As for `CCOC(=O)C1=C(C)NC(C)=C(C(=O)OCC)C1c1ccc(O)c(OCC)c1`, the “pEC50 for potentiation of CFTR deltaF508” value in data set [1] was 5.35. Moreover, in data set [2], the inhibition at 1 µM is 22.8%.
In the same order, the values of `COc1cc(C2C(C(=O)OCc3ccccc3)=C(C)NC(C)=C2C(=O)OCc2ccccc2)ccc1O` are 5.28 and 44.9%.
In the same order, the values of `COC(=O)C1=C(C)N=C(C)/C(=C(/O)OC)C1c1c(F)cccc1Cl` (stereo not given) are 6.8 and 100%.
In the same order, the values of `COC(=O)C1=C(C)N=C(C)/C(=C(/O)OC)C1c1cccc(Cl)c1` (stereo not given) are 6.22 and 100%.
As for `COC(=O)C1=CNC=C(C(=O)OC)C1c1ccc(Cl)c(Cl)c1`, the “pEC50 for potentiation of CFTR deltaF508” value in data set [1] was 5.7. The compound also came in with an inhibition at 1 µM in data set [2] of 17.1%.
